# Where a name gives a salt, the structure may show the parent alone.
# Assays:
# [1] = test system: NCI-H292 lung cancer cells; assay: FDA drug screening, complete media vs cholesterol-free media with simvastatin (TABLE 2); format: cell-based, human; settings: for Cholesterol-free media + simvastatin (0.04 μM) / Complete Media: NCI-H292 cells
# [2] = test system: NCI-H292 lung cancer cells; assay: FDA drug screening, complete media vs cholesterol-free media without statin (TABLE 1); format: cell-based, human
# [3] = cholesterol-free media with simvastatin 0.04 μM, […]
# [4] = complete media minus cholesterol-free media + simvastatin, […]
# [5] = Complete minus Cholesterol-free, […]
# [6] = NCI-H292 cells, cholesterol-free media without statin, FDA drug library screen
# [7] = NCI-H292 cells, complete media, FDA drug library screen
# [8] = FDA drug library screen, cholesterol-free media with simvastatin 0.04 μM
# [9] = FDA drug library screen, complete media
# [10] = complete media vs cholesterol-free media + simvastatin (0.04 μM), >0 enhanced anti-cancer activity, about 0 neutral, <0 antagonist
# [11] = Complete minus Cholesterol-free, >0 enhanced anti-cancer activity, about 0 neutral, <0 antagonist
# [12] = NCI-H292 cells, cholesterol-free media without statin
# [13] = cholesterol-free media with simvastatin 0.04 μM, FDA drug library screen (TABLE 2)
# [14] = complete media, FDA drug library screen (TABLE 2)
# [15] = complete media minus cholesterol-free media + simvastatin (0.04 μM), >0 enhanced anti-cancer activity, about 0 neutral, <0 antagonist
# [16] = Complete minus Cholesterol-free, greater than 0 enhanced anti-cancer activity, about 0 neutral, below 0 antagonists
# [17] = NCI-H292 cells in cholesterol-free media without statin
# [18] = NCI-H292 cells in complete media
# [19] = FDA library drug in cholesterol-free media with simvastatin 0.04 μM
# [20] = FDA library drug in complete media
# [21] = complete vs cholesterol-free media, >0 enhanced anti-cancer activity, about 0 neutral, <0 antagonist
# [22] = cholesterol-free media with simvastatin 0.04 μM, cell growth value in FDA drug screen
# [23] = complete media, cell growth value in FDA drug screen
# [24] = complete media minus cholesterol-free media + simvastatin, >0 enhanced anti-cancer activity, about 0 neutral, <0 antagonist
# [25] = Complete minus Cholesterol-free, greater than 0 enhanced anti-cancer activity, about 0 neutral, below 0 antagonist
# [26] = NCI-H292 cells, FDA drug library screen, cholesterol-free media without statin
# [27] = NCI-H292 cells, FDA drug library screen, complete media
# [28] = complete vs cholesterol-free media, greater than 0 enhanced anti-cancer activity, about 0 neutral, below 0 antagonists
compound,measurement,setting,value
C[N+](C)(CC(=O)Nc1ccccc1)CC(=O)Nc1ccccc1.[Cl-] [Carcainium (chloride)],Cholesterol-free media + simvastatin (0.04 μM),[1]; [3],1.019
same,Complete Media,"[1]; complete media, […]",1.155
same,Difference,[1]; [4],0.14
same,Difference,[2]; [5],0.01
same,Cholesterol-free,[2]; [6],0.9985
same,Complete,[2]; [7],1.004
CNC(=C[N+](=O)[O-])NCCSCc1csc(CN(C)C)n1 [Nizatidine],Cholesterol-free media + simvastatin (0.04 μM),[1]; [8],1.118
same,Complete Media,[1]; [9],0.9809
same,Difference,[1]; [10],−0.14
same,Difference,[2]; [11],−0.23
same,Cholesterol-free,[2]; [12],1.253
same,Complete,"[2]; NCI-H292 cells, complete media",1.026
CN(C)[C@@H]1C(O)=C(C(N)=O)C(=O)[C@@]2(O)C(O)=C3C(=O)c4c(O)ccc(Cl)c4[C@@H](O)[C@H]3C[C@@H]12 [Demeclocycline (hydrochloride)],Cholesterol-free media + simvastatin (0.04 μM),[1]; [13],1.054
same,Complete Media,[1]; [14],1.04
same,Difference,[1]; [15],−0.01
same,Difference,[2]; [16],−0.59
same,Cholesterol-free,[2]; [17],1.527
same,Complete,[2]; [18],0.9395
CN(C)CCCC1(c2ccc(F)cc2)OCc2cc(C#N)ccc21 (centres unmarked) [Citalopram (hydrobromide)],Cholesterol-free media + simvastatin (0.04 μM),[1]; [19],1.457
same,Complete Media,[1]; [20],0.8476
same,Difference,[1]; [10],−0.61
same,Cholesterol-free,[2]; [6],0.8091
same,Complete,[2]; [7],1.106
same,Difference,[2]; [21],0.30
Cn1nnc(-c2ccc(-c3ccc(N4C[C@H](CO)OC4=O)cc3F)cn2)n1 [Tedizolid],Cholesterol-free media + simvastatin (0.04 μM),[1]; [22],1.119
same,Complete Media,[1]; [23],1.184
same,Difference,[1]; [24],0.07
same,Difference,[2]; [25],−0.10
same,Cholesterol-free,[2]; [26],0.9116
same,Complete,[2]; [27],0.8073
CCC(=O)O[C@H]1[C@H](O[C@@H]2[C@@H](C)[C@H](O[C@H]3C[C@@](C)(OC)[C@@H](O)[C@H](C)O3)[C@@H](C)C(=O)O[C@H](CC)[C@@](C)(O)[C@H](O)[C@@H](C)C(=O)[C@H](C)C[C@@]2(C)O)O[C@H](C)C[C@@H]1N(C)C [Erythromycin estolate],Cholesterol-free media + simvastatin (0.04 μM),[1]; [19],1.347
same,Complete Media,[1]; [20],1.076
same,Difference,[1]; [10],−0.27
same,Cholesterol-free,[2]; [6],0.6279
same,Complete,[2]; [7],1.129
same,Difference,[2]; [21],0.50
CCOc1cc([C@@H](CS(C)(=O)=O)N2C(=O)c3cccc(NC(C)=O)c3C2=O)ccc1OC [Apremilast],Cholesterol-free media + simvastatin (0.04 μM),[1]; [8],1.396
same,Complete Media,[1]; [9],1.812
same,Difference,[1]; [24],0.42
same,Cholesterol-free,[2]; [6],1.127
same,Complete,[2]; [7],1.856
same,Difference,[2]; [21],0.73
N[C@H](CO)C(=O)O [(R)-Serine],Cholesterol-free media + simvastatin (0.04 μM),[1]; [22],0.9633
same,Complete Media,[1]; [23],1.052
same,Difference,[1]; [24],0.09
same,Cholesterol-free,[2]; [12],1.718
same,Complete,"[2]; NCI-H292 cells, complete media",1.345
same,Difference,[2]; [28],−0.37
CC(=O)Oc1cc(C(F)(F)F)ccc1C(=O)O [Triflusal],Cholesterol-free media + simvastatin (0.04 μM),[1]; [8],1.154
same,Complete Media,[1]; [9],1.083
same,Difference,[1]; [10],−0.07
same,Cholesterol-free,[2]; [6],1.019
same,Complete,[2]; [7],1.117
same,Difference,[2]; [21],0.10
[H]/N=C(/N)N/C(=N/[H])NCCc1ccccc1 [Phenformin (hydrochloride)],Cholesterol-free media + simvastatin (0.04 μM),[1]; [8],1.171
same,Complete Media,[1]; [9],1.373
same,Difference,[1]; [24],0.20
same,Difference,[2]; [25],−0.12
same,Cholesterol-free,[2]; [26],0.9657
same,Complete,[2]; [27],0.8472
Clc1ccccc1CN1CCc2sccc2C1 [Ticlopidine (hydrochloride)],Cholesterol-free media + simvastatin (0.04 μM),[1]; [22],1.416
same,Complete Media,[1]; [23],1.478
same,Difference,[1]; [24],0.06
same,Difference,[2]; [16],−0.88
same,Cholesterol-free,[2]; [17],1.64
same,Complete,[2]; [18],0.7613
CC(=O)O[C@]1(C(C)=O)CC[C@H]2[C@@H]3C=C(C)C4=CC(=O)CC[C@]4(C)[C@H]3CC[C@@]21C [Megestrol acetate],Cholesterol-free media + simvastatin (0.04 μM),[1]; [19],1.252
same,Complete Media,[1]; [20],0.9647
same,Difference,[1]; [10],−0.29
same,Difference,[2]; [11],−0.26
same,Cholesterol-free,[2]; [12],1.189
same,Complete,"[2]; NCI-H292 cells, complete media",0.9289
Cc1cccn2c(=O)c(-c3nnn[nH]3)cnc12 [Pemirolast (potassium)],Cholesterol-free media + simvastatin (0.04 μM),[1]; [8],1.053
same,Complete Media,[1]; [9],0.9441
same,Difference,[1]; [10],−0.11
same,Cholesterol-free,[2]; [6],0.8951
same,Complete,[2]; [7],1.011
same,Difference,[2]; [21],0.12
Imatinib (Mesylate),Cholesterol-free media + simvastatin (0.04 μM),[1]; [8],1.089
same,Complete Media,[1]; [9],0.9411
same,Difference,[1]; [10],−0.15
same,Cholesterol-free,[2]; [6],0.5677
same,Complete,[2]; [7],1.017
same,Difference,[2]; [21],0.45
CN1CC2c3ccccc3Oc3ccc(Cl)cc3C2C1 (centres unmarked) [Asenapine (hydrochloride)],Cholesterol-free media + simvastatin (0.04 μM),[1]; [22],1.244
same,Complete Media,[1]; [23],1.302
same,Difference,[1]; [24],0.06
same,Cholesterol-free,[2]; [6],1.288
same,Complete,[2]; [7],1.388
same,Difference,[2]; [21],0.10
CCOc1ccc(NC(C)=O)cc1 [Phenacetin],Cholesterol-free media + simvastatin (0.04 μM),[1]; [8],1.132
same,Complete Media,[1]; [9],1.048
same,Difference,[1]; [10],−0.08
same,Difference,[2]; [25],−0.09
same,Cholesterol-free,[2]; [26],0.9552
same,Complete,[2]; [27],0.8688
Oseltamivir (phosphate),Cholesterol-free media + simvastatin (0.04 μM),[1]; [3],0.8277
same,Complete Media,"[1]; complete media, […]",0.8627
same,Difference,[1]; [4],0.04
same,Difference,[2]; [5],−0.16
same,Cholesterol-free,[2]; [26],1.28
same,Complete,[2]; [27],1.117
Streptomycin (sulfate),Cholesterol-free media + simvastatin (0.04 μM),[1]; drug in cholesterol-free media with simvastatin 0.04 μM,1.77
same,Complete Media,[1]; drug in complete media,1.586
same,Difference,"[1]; complete media vs cholesterol-free media + simvastatin (0.04 μM), […]",−0.18
same,Difference,[2]; [5],−1.05
same,Cholesterol-free,[2]; [17],2.317
same,Complete,[2]; [18],1.265
CN1CCc2c(c3ccccc3n2Cc2ccccc2)C1 [Mebhydrolin (napadisylate)],Cholesterol-free media + simvastatin (0.04 μM),[1]; [13],0.9255
same,Complete Media,[1]; [14],0.929
same,Difference,[1]; [15],0.00
same,Cholesterol-free,[2]; [6],1.008
same,Complete,[2]; [7],1.238
same,Difference,[2]; [21],0.23
Cn1c(=O)c2c(ncn2CC(=O)O)n(C)c1=O [Acefylline],Cholesterol-free media + simvastatin (0.04 μM),[1]; [13],1.078
same,Complete Media,[1]; [14],1.058
same,Difference,[1]; [15],−0.02
same,Difference,[2]; [11],−0.31
same,Cholesterol-free,[2]; [12],1.455
O=C(O[C@@H]1C[C@@H]2C[C@H]3C[C@H](C1)N2CC3=O)c1c[nH]c2ccccc12 [Dolasetron],Cholesterol-free media + simvastatin (0.04 μM),[1]; [22],0.9714
same,Complete Media,[1]; [23],1.02
same,Difference,[1]; [24],0.05
same,Cholesterol-free,[2]; [12],1.4
same,Complete,"[2]; NCI-H292 cells, complete media",0.9782
same,Difference,[2]; [28],−0.42
CCCSc1nc(N[C@@H]2C[C@H]2c2ccc(F)c(F)c2)c2nnn([C@@H]3C[C@H](OCCO)[C@@H](O)[C@H]3O)c2n1 [Ticagrelor],Cholesterol-free media + simvastatin (0.04 μM),[1]; [8],0.854
same,Complete Media,[1]; [9],1.275
same,Difference,[1]; [24],0.42
same,Difference,[2]; [16],−0.72
same,Cholesterol-free,[2]; [17],1.589
same,Complete,[2]; [18],0.8706
